Results on one compound are retold here after patent US6958331B1, “Bradykinin receptor antagonists” (Novartis AG, priority 1999, dated 2005).

The target of this test is T1, human bradykinin B1 receptor (Homo sapiens, UniProt P46663).
T1 construct: expressed in transfected cells; membranes
T1 sequence (P46663 1-353): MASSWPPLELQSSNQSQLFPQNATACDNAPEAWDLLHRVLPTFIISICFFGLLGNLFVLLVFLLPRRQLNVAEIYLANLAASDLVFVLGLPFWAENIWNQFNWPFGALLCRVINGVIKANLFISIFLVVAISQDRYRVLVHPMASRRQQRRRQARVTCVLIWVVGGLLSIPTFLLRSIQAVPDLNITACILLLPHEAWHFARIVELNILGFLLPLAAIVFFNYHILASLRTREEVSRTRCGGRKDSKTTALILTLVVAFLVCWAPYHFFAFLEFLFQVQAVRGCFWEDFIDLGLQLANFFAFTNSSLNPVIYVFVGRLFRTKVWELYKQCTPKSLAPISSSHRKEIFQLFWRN
The experiment in a line: Test I: Bradykinin Receptor Binding Assay ([3H]desArg10-kallidin displacement, HEK 293 membranes). To be noted: statement in words.

Each structure is given as a SMILES string.

Experimental: This cDNA is sequenced and subcloned into pcDNA3 (Clontech) and used to generate a cell-line which expresses the human bradykinin B1 receptor.
Cells are grown in Mininum Essential Medium with Eade's Salts (GIBCO) supplemented with 2 mM L-glutamine, 100 units/ml penicillin, 100 μg/ml streptomycin, 1% nonessential amino acids and 10% myodone foetal calf serum (GIBCO) in a humidified atmosphere with 5% CO2 at 37° C.
One 175 cm^2 flask with approximately 50% confluent cells is transfected with approximately 30 μg/ml HB1-pcDNA3 DNA using the calcium phosphate precipitate method of transfection. The flask of transfected cells is split 1:3 on day 2 post transfecdon to prevent overgrowth. The following day the cells are split 1:5 and selection in 700 μg/ml G418 begins. The selective medium is changed every 3-4 days. When distinct G418 resistant colonies of transfected cells are seen, approximately 4 weeks after transfection, the cells are cloned by limiting dilution and assayed for binding of [^3H]desArg^10-kallidin. […]
Specific binding to the bradykinin B1 receptor is defined as the difference between that found in total bound tubes and that found in non-specific binding tubes. […] Mimoscintillant-40 Liquid scintillant is added to the filters and radioactivity bound is determined in a Canberra Packard Topcount scintillation counter. […]

As to `CC(C)N1CCN(C(=O)C2CCN(S(=O)(=O)c3ccc(NCC(c4ccccc4)c4ccccc4)c(C(=O)N4CCOCC4)c3)CC2)CC1` [Example 1, {2-(2,2-diphenyl-ethylamino)-5-[4-(4-Isopropyl-piperazine-1-carbonyl)-piperidine-1-sulfonyl]-pheny}-morpholin-4-yl-methanone], the “active at the human B1 bradykinin receptor” value was “active”.
